Test results reported in US4745223A, “Mono-tertiary-alkylated toluenediamine and derivatives” (Air Products and Chemicals, Inc., priority 1985, dated 1988).

What was measured:
[1] = Pot life test of chain extenders in polyurethane-urea formulation; conditions: 50° C., log (relative viscosity) = I + A*(time) + B*(time)**2 + C*(time)**3
Method: A series of polyurethane-urea elastomers utilizing various chain extenders was prepared and evaluated in a pot life test system for the purpose of determining the reactivity of the chain extenders in standard urethane formulations relative to one another. The polyurethane-urea elastomers were formulated by reacting a prepolymer of poly(1,4-oxytetramethylene)glycol end-capped with 2,4-toluene diisocyanate, the prepolymer having an NCO content generally from 5-7%, with the test candidate chain extender aromatic diamine and a diol. The nominal stoichiometric equivalent ratio of isocyanate to diamine chain extender to diol for each sample is 2:1:1.
The test system for measuring pot life comprised a heated test chamber for holding 7 grams of test sample at a constant temperature (50° C.) and was equipped with a vertical perforated piston. This piston moves up and down through the test sample in timed relationship. (The temperature rise due to the exothermic reaction is discounted.) The force necessary to move the piston through the polymer sample is measured in arbitrary units, and the relationship of the force is plotted as a function of time. The force-pot life relationship of the urethane system during cure then is correlated to known force-viscosity relationships for the urethane-urea systems.
The coefficients apply to the equation:
log (viscosity)=I+A(time)+B(time)^2 +C(time)^3.
The coefficient of the first power term ("A") is a "quasi" reaction rate constant measuring initial reactivity. Smaller values in the quasi rate constant (A) indicate longer and desirable pot lives. The value T-5000 is the time in which the reaction product has a relative viscosity of 5000 units. Even though the value is an arbitrary value, that value is relevant for use in determining the performance of the test candidate in a RIM process or cast elastomers process. For injection molding of modest size parts, T-5000 may be about 2.5 minutes; whereas, the molding of large or intricate parts may require a T-5000 of greater than 5 minutes, e.g., 10 to 40 minutes for hand casting.

Salmonella strain TA1538 = assay: Ames mutagenic assay, strain TA1538; type: cell-based
Method: (§1) A series of chain extenders was tested in the Ames mutagenic assay using five strains of Salmonella bacteria without (-) and with (+) metabolic activation. Table 6 provides the results of various test compounds including a variety of known aromatic diamine chain extenders against these five strains of Salmonella bacteria. The data are presented as the quantity of test compound in micrograms per test plate that gave positive mutagencity results.
(§2) From Pharmakon Research International, the Ames test data evaluation criteria in Table 5 are clearly defined: "In most tests with the Salmonella/Microsome Assay, results are either clearly positive or clearly negative. A positive result is defined as a reproducible, dose-related increase in the number of histidine-independent colonies. This dose-response relationship occasionally necessitates slight modification of the original doses in a repeat assay. If the historical control is within one standard deviation of the historical mean and the test chemical produces the highest increase equal to or greater than three times the solvent control value, the test chemical is considered positive. A negative result is defined as the absence of a reproducible increase in the number of histidine-independent colonies."

Salmonella strain TA98 = assay: Ames mutagenic assay, strain TA98; type: cell-based; conditions: TA98, (+) with metabolic activation
Method: as §1, §2

Salmonella strain TA100 = assay: Ames mutagenic assay, strain TA100; type: cell-based
Method: as §1, §2

[2] = tested on: five strains of Salmonella bacteria; assay: Ames test, overall outcome; type: cell-based; conditions: with and without metabolic activation
Method: as §1, §2

Salmonella strain TA1537 [3] = assay: Ames mutagenic assay, strain (TA1537), without (-) and with (+) metabolic activation; type: cell-based; conditions: first strain column, TA1537 as printed
Method: as §1, §2

Salmonella strain TA1537 [4] = assay: Ames mutagenic assay, second strain column (printed TA1537), without (-) and with (+) metabolic activation; type: cell-based; conditions: TA1537 as printed, (+) with metabolic activation
Method: as §1, §2

Q: For “3-Cyclopentenyl-2,6-toluenediamine [3Cp26TDA]”, which “lineshape coefficient A (quasi reaction rate constant, initial reactivity)” value [1] is on record?
A: .7173

Q: With `Cc1c(N)ccc(C(C)C)c1N` [3iP26TDA, 3-isoPropyl-2,6-toluendiamine] as the compound, how does the “lineshape coefficient A (quasi reaction rate constant, initial reactivity)” value [1] read?
A: .5074

Q: With `CCC(C)(C)c1ccc(N)c(C)c1N` [3tA26TDA, 3-tertiaryAmyl-2,6-toluenediamine] as the compound, how does the “lineshape coefficient A (quasi reaction rate constant, initial reactivity)” value [1] read?
A: .08902

Q: Which results are given for `Cc1c(N)ccc(C(C)(C)C)c1N` [3tB26TDA, 3-tert-butyl-2,6-toluenediamine]?
A: lineshape coefficient A (quasi reaction rate constant, initial reactivity) [1]: .06721; lineshape coefficient A (quasi reaction rate constant, initial reactivity) ([1]; listed as Monotertiarybutylated 2,6-TDA): 0.06721

Q: For `Cc1cc(N)c(N)c(C(C)(C)C)c1` [3tB34TDA, 5-tertiaryButyl-3,4-toluenediamine], which “lineshape coefficient A (quasi reaction rate constant, initial reactivity)” value [1] is on record?
A: .2764

Q: For `Cc1c(N)ccc(C2(C)CCCC2)c1N` [3tMCp26TDA, 3-tertiaryMethylcyclopentyl-2,6-toluenediamine], which “lineshape coefficient A (quasi reaction rate constant, initial reactivity)” value [1] is on record?
A: .1722

Q: With `Cc1c(N)cc(C(C)(C)C)cc1N` [4tB26TDA, 4-tertiaryButyl-2,6-toluenediamine] as the compound, how does the “lineshape coefficient A (quasi reaction rate constant, initial reactivity)” value [1] read?
A: 3.867

Q: What about the “lineshape coefficient A (quasi reaction rate constant, initial reactivity)” value ([1]; listed as 4-tertiarybutyl-2,6-toluenediamine) of the same compound?
A: 3.87

Q: With `Cc1cc(C(C)C)c(N)cc1N` [5iP24TDA, 5-isoPropyl-2,4-toluenediamine] as the compound, how does the “lineshape coefficient A (quasi reaction rate constant, initial reactivity)” value [1] read?
A: 3.374

Q: For `Cc1cc(C(C)(C)C)c(N)c(C)c1N` [5tB24DAmX, 5-tertiaryButyl-2,4-diaminometaxylene], which “lineshape coefficient A (quasi reaction rate constant, initial reactivity)” value [1] is on record?
A: .8716

Q: With `CCc1cc(C)c(N)c(CC)c1N` [35DE24TDA, 3,5-Diethyl-2,4-toluenediamine] as the compound, how does the “lineshape coefficient A (quasi reaction rate constant, initial reactivity)” value [1] read?
A: 1.350

Q: For `CCc1cc(CC)c(N)c(C)c1N` [35DE26TDA, 3,5-Diethyl-2,6-toluenediamine], which “lineshape coefficient A (quasi reaction rate constant, initial reactivity)” value [1] is on record?
A: 5.572

Q: Which “lineshape coefficient A (quasi reaction rate constant, initial reactivity)” value [1] does the source give for `Cc1cc(C(C)C)c(N)c(C(C)C)c1N` [35DiP24TDA, 3.5-Diisopropyl-2,4-toluenediamine] here?
A: .7499

Q: For `Cc1c(N)c(C(C)C)cc(C(C)C)c1N` [35DiP26TDA, 3,5-Diisopropyl-2,6-toluenediamine], which “lineshape coefficient A (quasi reaction rate constant, initial reactivity)” value [1] is on record?
A: 1.563

Q: Which results are given for `Cc1c(N)c(C(C)(C)C)cc(C(C)(C)C)c1N` [35DtB26TDA, 3,5-Ditertiarybutyl-2,6-toluenediamine]?
A: quantity of test compound that gave positive mutagenicity results (Salmonella strain TA1538): 50 micrograms per test plate; quantity of test compound that gave positive mutagenicity results (Salmonella strain TA98): 15 micrograms per test plate; quantity of test compound that gave positive mutagenicity results (Salmonella strain TA100): 50 micrograms per test plate; Ames test result [2]: Ames positive; lineshape coefficient A (quasi reaction rate constant, initial reactivity) [1]: .1601

Q: Which results are given for `CC(C)(C)c1ccc(N)cc1N` [tBBDA, tertiaryButyl-2,4-benzenediamine]?
A: quantity of test compound that gave positive mutagenicity results (Salmonella strain TA1538): 1200 micrograms per test plate; quantity of test compound that gave positive mutagenicity results (Salmonella strain TA98): 1800 micrograms per test plate

Q: Which “quantity of test compound that gave positive mutagenicity results” value (shortened to “quantity”) (Salmonella strain TA1537 [3]; (+) with metabolic activation) does the source give for chlorotoluenediamine [Cl-TDA] here?
A: 50 micrograms per test plate

Q: And the “quantity” value (Salmonella strain TA1537 [3]; (-) without metabolic activation)?
A: 500 micrograms per test plate

Q: And the “quantity” value (Salmonella strain TA1537 [4])?
A: 5000 micrograms per test plate

Q: What about the “quantity” value (Salmonella strain TA1538) of the same compound?
A: 500 micrograms per test plate

Q: What about the “quantity” value (Salmonella strain TA98) of the same compound?
A: 500 micrograms per test plate

Q: And the “quantity” value (Salmonella strain TA100)?
A: 500 micrograms per test plate

Q: And the Ames test result [2]?
A: Ames positive
